Data on 17 compounds can be found in US9464058B2 (Hoffmann-La Roche Inc., priority 2012, dated 2016).

In general, EC50 refers to the concentration needed to bring the measured effect to its halfway point. A high value points to a less potent agent.

For one experiment, the target named is T1, human CYP11B1 (Homo sapiens, UniProt P15538).
T1 construct: expressed in transfected cells
T1 sequence (P15538 25-503): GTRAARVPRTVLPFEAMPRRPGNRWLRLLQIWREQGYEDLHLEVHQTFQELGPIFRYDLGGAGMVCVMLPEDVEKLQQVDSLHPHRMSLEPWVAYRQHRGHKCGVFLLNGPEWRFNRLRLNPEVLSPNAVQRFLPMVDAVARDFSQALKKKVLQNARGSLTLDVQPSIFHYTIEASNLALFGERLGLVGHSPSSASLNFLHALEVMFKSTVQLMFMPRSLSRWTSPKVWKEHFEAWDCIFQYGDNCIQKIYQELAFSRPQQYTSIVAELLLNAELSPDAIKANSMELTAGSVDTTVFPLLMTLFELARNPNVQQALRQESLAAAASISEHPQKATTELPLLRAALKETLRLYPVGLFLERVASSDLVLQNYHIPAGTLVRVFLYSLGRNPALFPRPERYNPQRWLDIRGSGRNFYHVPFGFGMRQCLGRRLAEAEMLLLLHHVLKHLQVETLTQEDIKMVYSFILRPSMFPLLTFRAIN
The experiment can be described thus: G-402 cellular enzyme assay, human CYP11B1 (cortisol release, HTRF). In kind it is cell-based. The conditions noted are these: G-402 cells expressing human CYP11B1; 1 μM Deoxycortisol; 16 h. From the text:
(§1) Herein we identified the use of the G-402 cell line as a host cell to ectopically express (transiently or stably) enzymes of the CYP11 family. Specifically we developed stable G-402 cells expressing ectopically human CYP11B1, human CYP11B2, human CYP11A1, cynomolgus CYP11B1 or cynomolgus CYP11B2 enzyme activity. Importantly, the identified cell line G-402 expresses co-factors (adrenodoxin and adrenodoxin reductase) important for the activity of the CYP11 family, and no relevant enzyme activity of the CYP11 family (in comparison to H295R cells) was detected in these cells. Therefore the G-402 cell line is uniquely suited as a host cell for the ectopic expression of enzymes from the CYP11 family.
(§2) G-402 cells can be obtained from ATCC(CRL-1440) and were originally derived from a renal leiomyoblastoma.
(§3) The expression plasmids contains the ORF for either human/cyno CYP11B1 or CYP11B2 under the control of a suitable promoter (CMV-promoter) and a suitable resistance marker (neomycin). Using standard techniques the expression plasmid is transfected into G-402 cells and these cells are then selected for expressing the given resistance markers. Individual cell-clones are then selected and assessed for displaying the desired enzymatic activity using 11-Deoxycorticosterone (Cyp11B2) or 11-Deoxycortisol (Cyp11B1) as a substrate.
(§4) G-402 cells expressing CYP11 constructs were established as described above and maintained in McCoy's 5a Medium Modified, ATCC Catalog No. 30-2007 containing 10% FCS and 400 μg/ml G418 (Geneticin) at 37° C. under an atmosphere of 5% CO2/95% air. Cellular enzyme assays were performed in DMEM/F12 medium containing 2.5% charcoal treated FCS and appropriate concentration of substrate (0.3-10 uM 11-Deoxycorticosterone, 11-Deoxycortisol or Corticosterone). For assaying enzymatic activity, cells were plated onto 96 well plates and incubated for 16 h. An aliquot of the supernatant is then transferred and analyzed for the concentration of the expected product (Aldosterone for CYP11B2; Cortisol for CYP11B1). The concentrations of these steroids can be determined using HTRF assays from CisBio analyzing either Aldosterone or Cortisol.
(§5) Inhibition of the release of produced steroids can be used as a measure of the respective enzyme inhibition by test compounds added during the cellular enzyme assay. The dose dependent inhibition of enzymatic activity by a compound is calculated by means of plotting added inhibitor concentrations (x-axes) vs. measured steroid/product level (y-axes). The inhibition is then calculated by fitting the following 4-parameter sigmoidal function (Morgan-Mercer-Flodin (MMF) model) to the raw data points using the least squares method:
(§6) [formula] wherein A is the maximum y value, B is the EC50 factor determined using XLFit, C is the minimum y value and D is the slope value.
(§7) EC50 values for compounds claimed herein were tested with the G402-based assay system described. Cyp11B2 enzyme activity was tested in presence of 1 μM Deoxycorticosterone and variable amounts of inhibitors; Cyp11B1 enzyme activity was tested in presence of 1 μM Deoxycortisol and variable amounts of inhibitors.
Background: TR-FRET usually uses a lanthanide donor and a delayed reading to cut background.

The target of the next experiment is T2, human CYP11B2 (Homo sapiens, UniProt P19099).
T2 construct: expressed in transfected cells
T2 sequence (P19099 25-503): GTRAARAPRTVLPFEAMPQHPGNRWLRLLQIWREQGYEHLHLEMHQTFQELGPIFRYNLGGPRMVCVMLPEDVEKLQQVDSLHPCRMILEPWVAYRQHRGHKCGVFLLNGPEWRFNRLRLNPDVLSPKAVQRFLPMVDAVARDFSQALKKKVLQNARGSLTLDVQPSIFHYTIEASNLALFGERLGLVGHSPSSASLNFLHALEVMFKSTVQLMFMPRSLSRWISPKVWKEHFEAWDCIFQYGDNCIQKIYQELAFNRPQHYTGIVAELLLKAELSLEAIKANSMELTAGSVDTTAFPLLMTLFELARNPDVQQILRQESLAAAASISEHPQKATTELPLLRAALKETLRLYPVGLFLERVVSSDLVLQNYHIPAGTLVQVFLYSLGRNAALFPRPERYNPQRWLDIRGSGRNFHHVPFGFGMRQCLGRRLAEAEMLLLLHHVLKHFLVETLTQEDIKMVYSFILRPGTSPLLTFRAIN
Kind of experiment: G-402 cellular enzyme assay, human CYP11B2 (aldosterone release, HTRF). In kind it is cell-based. The conditions noted are these: G-402 cells expressing human CYP11B2; 1 μM Deoxycorticosterone; 16 h.
Excerpt: as §1, §2, §3, §4, §5, §6, §7

`CCn1cncc1C(=O)c1ccc(SC(F)(F)F)c(OC)c1` [Example 80, (3-Ethyl-3H-imidazol-4-yl)-(3-methoxy-4-trifluoromethylsulfanyl-phenyl)-methanone]: the concentration for a half-maximal effect (EC50) is 634 nM on human CYP11B1 and 12.9 nM at human CYP11B2.

In the case of `N#Cc1cc(C(=O)c2cncn2C2CC2)ccc1F` [Example 66, 5-(3-Cyclopropyl-3H-imidazole-4-carbonyl)-2-fluoro-benzonitrile], the EC50 on human CYP11B1 stood at 2210 nM; at human CYP11B2, 447 nM.

For `CCSc1ccc(C(=O)c2cncn2C(C)C)cc1` [Example 71, (4-Ethylsulfanyl-phenyl)-(3-isopropyl-3H-imidazol-4-yl)-methanone], the EC50 on human CYP11B1 worked out at 253 nM; on human CYP11B2, 5.3 nM.

For the compound `CCn1cncc1C(=O)c1ccc(C#N)cc1` [Example 5, 4-(3-Ethyl-3H-imidazole-4-carbonyl)-benzonitrile], the results for the EC50 at human CYP11B1 and on human CYP11B2 were 46.8 nM and 2.6 nM, respectively.

Turning to `CCSc1ccc(C(=O)c2cncn2CC)cc1` [Example 69, (3-Ethyl-3H-imidazol-4-yl)-(4-ethylsulfanyl-phenyl)-methanone], the EC50 on human CYP11B1 was 329 nM; on human CYP11B2, 84.4 nM.

With `CCC(C)n1cncc1C(=O)c1cccc(C#N)c1` (centres unmarked) [Example 37, 3-(3-sec-Butyl-3H-imidazole-4-carbonyl)-benzonitrile], the EC50 on human CYP11B1 came to 78.2 nM; at human CYP11B2, 6.3 nM.

Consider `CCC(CC)n1cncc1C(=O)c1ccc(C#N)cc1` [Example 82, 4-[3-(1-Ethyl-propyl)-3H-imidazole-4-carbonyl]-benzonitrile], for which the EC50 turned out to be 3.3 nM on human CYP11B1 and 0.2 nM at human CYP11B2.

On to `CCn1cncc1C(=O)c1ccc(Cl)c(Cl)c1` [Example 15, (3,4-Dichloro-phenyl)-(3-ethyl-3H-imidazol-4-yl)-methanone], for which the EC50 at human CYP11B1 is 20 nM; on human CYP11B2 it was 1.8 nM.

For the compound `CC(C)n1cncc1C(=O)c1ccc(C#N)cc1F` [Example 10, 3-Fluoro-4-(3-isopropyl-3H-imidazole-4-carbonyl)-benzonitrile], the 50% effective concentration (EC50) on human CYP11B1 was 70.3 nM; on human CYP11B2, 10.8 nM.

In the case of `COc1cc(C(=O)c2cncn2C)ccc1SC` [Example 50, (3-Methoxy-4-methylsulfanyl-phenyl)-(3-methyl-3H-imidazol-4-yl)-methanone], the concentration for a half-maximal effect (EC50) on human CYP11B1 is 687 nM; on human CYP11B2, 14.8 nM.

In the case of `CC(C)n1cncc1C(=O)c1cccc(C#N)c1` [Example 57, 3-(3-Isopropyl-3H-imidazole-4-carbonyl)-benzonitrile], the EC50 at human CYP11B1 is 203 nM; at human CYP11B2, 26 nM.

With `CCC(C)n1cncc1C(=O)c1ccc(F)c(C#N)c1` (centres unmarked) [Example 65, 5-(3-sec-Butyl-3H-imidazole-4-carbonyl)-2-fluoro-benzonitrile], the figures for the concentration giving a half-maximal response (EC50) at human CYP11B1 and at human CYP11B2 were 88.2 nM and 21.5 nM, respectively.

As for `Cn1cncc1C(=O)c1ccc(S(C)(=O)=O)cc1` [Example 47, (4-Methanesulfonyl-phenyl)-(3-methyl-3H-imidazol-4-yl)-methanone], on human CYP11B2, the EC50 was 3530 nM.

Consider `CC(=O)N(C)c1ccc(C(=O)c2cncn2C)cc1` [Example 55, N-Methyl-N-[4-(3-methyl-3H-imidazole-4-carbonyl)-phenyl]-acetamide], for which, at human CYP11B2, the 50% effective concentration (EC50) turned out to be 923 nM.

At human CYP11B1, `CN(C(=O)OC(C)(C)C)c1ccc(C(=O)c2cncn2C)cc1` [Example 85, Methyl-[4-(3-methyl-3H-imidazole-4-carbonyl)-phenyl]-carbamic acid tert-butyl ester] had an EC50 of 12500 nM.

`Cn1cncc1C(=O)c1ccc(SC(F)(F)F)cc1` [Example 73, (3-Methyl-3H-imidazol-4-yl)-(4-trifluoromethylsulfanyl-phenyl)-methanone] had a half-maximal effective concentration (EC50) at human CYP11B2 of 390 nM.

In the case of `Cn1cncc1C(=O)c1ccc(C(C)(C)C)cc1` [Example 30, (4-tert-Butyl-phenyl)-(3-methyl-3H-imidazol-4-yl)-methanone], a half-maximal effect on human CYP11B1 (EC50) was put at 9880 nM.
